Data: patent US9334238B2, “N-substituted pyridinylidenes for combating animal pests” (BASF SE, priority 2012, dated 2016)

Columns and labels:
Assay type in all cases: in vivo
[1] = test system: green peach aphid (Myzus persicae); assay: Green peach aphid systemic test, artificial diet in 96-well microtiter plates; conditions: 72 h, 2500 ppm in aphid diet, adult aphids, 3 days, read-out: mortality in comparison with untreated controls
Text: B.1 Green Peach Aphid (Myzus persicae)
For evaluating control of green peach aphid (Myzus persicae) through systemic means, the test unit consisted of 96-well-microtiter plates containing liquid artificial diet under an artificial membrane.
The compounds were formulated using a solution containing 75% v/v water and 25% v/v DMSO. Different concentrations of formulated compounds were pipetted into the aphid diet, using a custom built pipetter, at two replications.
After application, 5-8 adult aphids were placed on the artificial membrane inside the microtiter plate wells. The aphids were then allowed to suck on the treated aphid diet and incubated at about 23±1° C. and about 50±5% relative humidity for 3 days. Aphid mortality and fecundity was then visually assessed.

[2] = test system: Cowpea Aphid (Aphis craccivora); assay: Cowpea aphid test, sprayed potted cowpea plants; conditions: 500 ppm spray on infested cowpea plants, after 72 hours, read-out: mortality in comparison with untreated controls
Protocol: B.2 Cowpea Aphid (Aphis craccivora)
The active compound was dissolved at the desired concentration in a mixture of 1:1 (vol:vol) distilled water: acetone. Surfactant (Alkamuls® EL 620) was added at a rate of 0.1% (vol/vol). The test solution was prepared at the day of use.
Potted cowpea plants were colonized with approximately 50-100 aphids of various stages by manually transferring a leaf tissue cut from infested plant 24 hours before application. Plants were sprayed after the pest population has been recorded. Treated plants were maintained on light carts at about 28° C. Percent mortality was assessed after 72 hours.

[3] = test system: vetch aphid (Megoura viciae); assay: Vetch aphid contact/systemic test, broad bean leaf disks; conditions: foliar, 120 h, 2500 ppm sprayed onto leaf disks, adult aphids, 5 days, read-out: mortality in comparison with untreated controls
Protocol: B.3 Vetch Aphid (Megoura viciae)
For evaluating control of vetch aphid (Megoura viciae) through contact or systemic means the test unit consisted of 24-well-microtiter plates containing broad bean leaf disks.
The compounds were formulated using a solution containing 75% v/v water and 25% v/v DMSO. Different concentrations of formulated compounds were sprayed onto the leaf disks at 2.5 μl, using a custom built micro atomizer, at two replications.
After application, the leaf disks were air-dried and 5-8 adult aphids placed on the leaf disks inside the microtiter plate wells. The aphids were then allowed to suck on the treated leaf disks and incubated at about 23±1° C. and about 50±5% relative humidity for 5 days. Aphid mortality and fecundity was then visually assessed.

[4] = test system: Orchid thrips (dichromothrips corbetti); assay: Orchid thrips floral-immersion test; conditions: orchid flowers dipped, adult thrips, 72 hours after treatment, read-out: mortality in comparison with untreated controls
Protocol: B.4 Orchid thrips (dichromothrips corbetti)
Dichromothrips corbetti adults used for bioassay were obtained from a colony maintained continuously under laboratory conditions. For testing purposes, the test compound was diluted in a 1:1 mixture of acetone:water (vol:vol), plus 0.01% vol/vol Alkamuls® EL 620 surfactant.
Thrips potency of each compound was evaluated by using a floral-immersion technique. Plastic petri dishes were used as test arenas. All petals of individual, intact orchid flowers were dipped into treatment solution and allowed to dry. Treated flowers were placed into individual petri dishes along with about 20 adult thrips. The petri dishes were then covered with lids. All test arenas were held under continuous light and a temperature of about 28° C. for duration of the assay. After 3 days, the numbers of live thrips were counted on each flower, and along inner walls of each petri dish. The percent mortality was recorded 72 hours after treatment.

[5] = test system: Rice Green Leafhopper (Nephotettix virescens); assay: Rice green leafhopper test, sprayed rice seedlings; conditions: 500 ppm spray on rice seedlings, adults, after 72 hours, read-out: mortality in comparison with untreated controls
Protocol: B.5 Rice Green Leafhopper (Nephotettix virescens)
Rice seedlings were cleaned and washed 24 hours before spraying. The active compounds were formulated in 50:50 acetone:water (vol:vol), and 0.1% vol/vol surfactant (EL 620) wss added. Potted rice seedlings were sprayed with 5 ml test solution, air dried, placed in cages and inoculated with 10 adults. Treated rice plants were kept at about 28-29° C. and relative humidity of about 50-60%. Percent mortality was recorded after 72 hours.

[6] = test system: Rice Brown Plant Hopper (Nilaparvata lugens); assay: Rice brown plant hopper test, sprayed rice seedlings; conditions: 500 ppm spray on rice seedlings, adults, after 72 hours, read-out: mortality in comparison with untreated controls
Protocol: B.6 Rice Brown Plant Hopper (Nilaparvata lugens)
Rice seedlings were cleaned and washed 24 hours before spraying. The active compounds was formulated in 50:50 acetone:water (vol:vol) and 0.1% vol/vol surfactant (EL 620) was added. Potted rice seedlings were sprayed with 5 ml test solution, air dried, placed in cages and inoculated with 10 adults. Treated rice plants were kept at about 28-29° C. and relative humidity of about 50-60%. Percent mortality was recorded after 72 hours.

[7] = test system: Mediterranean fruitfly (Ceratitis capitata); assay: Mediterranean fruitfly test, insect diet with eggs in microtiter plates; conditions: 120 h, 2500 ppm sprayed onto insect diet, egg and larval mortality, 5 days, read-out: mortality in comparison with untreated controls
Protocol: B.7 Mediterranean Fruitfly (Ceratitis capitata)
For evaluating control of Mediterranean fruitfly (Ceratitis capitata) the test unit consists of microtiter plates containing an insect diet and 50-80 C. capitata eggs.
The compounds were formulated using a solution containing 75% v/v water and 25% v/v DMSO. Different concentrations of formulated compounds were sprayed onto the insect diet at 5 μl, using a custom built micro atomizer, at two replications.
After application, microtiter plates were incubated at about 28±1° C. and about 80±5% relative humidity for 5 days. Egg and larval mortality was then visually assessed.

O=C(/C=C1\C=CC=CN1Cc1ccc(Cl)nc1)C(F)(F)F [E-1, (3E)-3-[1-[(6-chloro-3-pyridyl)methyl]-2-pyridylidene]-1,1,1-trifluoro-propan-2-one]
≥ 75%: mortality at 2500 ppm [1] | mortality at 500 ppm [2] | mortality at 2500 ppm [3] | mortality at 500 ppm [4] | mortality at 500 ppm [5] | mortality at 500 ppm [6] | mortality at 2500 ppm [7]
